Data reported in patent US20240277711A1, “COMPOUNDS FOR THE TREATMENT OF GLIOBLASTOMA” (Merck Patent GmbH, priority 2021, published 2024).

How the values were obtained:
glioblastoma = conditions: in vivo; cited from earlier work
mouse glioma cell lines [1] = assay: Acute growth inhibition assay (MTT) in mouse glioma cell lines; type: cell-based; conditions: concentrations up to 1 μM
mouse glioma cell lines [2] = assay: Clonogenic survival (clonogenicity) assay in mouse glioma cell lines; type: cell-based; conditions: concentrations up to 1 μM
glioma cells = assay: Sensitization to irradiation in vitro (clonogenic survival); type: cell-based, mouse
[3] = test system: murine glioma cell invasiveness; assay: Murine glioma cell invasiveness in vitro without or with irradiation; type: cell-based, mouse; conditions: without or with irradiation (2 Gy, 8 Gy)
Text: Next, we evaluated the motogenic activity of HGF/MET in response to irradiation in vitro. Low-dose irradiation (2 Gy) increased invasiveness in SMA-540 and SMA-560 cells whereas high-dose irradiation (8 Gy) reduced invasiveness in SMA-497 and SMA-560 cells.

SMA-560 gliomas [4] = assay: Orthotopic syngeneic SMA-560 glioma model in vivo (survival, histology); design: species or system mouse
Protocol: B. Kaplan-Meier survival curve. C. […] Sections were counterstained with hematoxylin (blue).
Sections (8 μm thick) of tumor-bearing cryopreserved brains were prepared. The mean tumor size was determined by the largest tumor area in the horizontal plane on hematoxylin and eosin (H&E)-stained sections by multiplying the longest perpendicular diameters from a low-magnification (2.5×) image. Brain sections were immunostained with Ki-67 antibody (clone SP6, Epitomics, Burlingame, CA), anti-mouse CD31 antibody (clone MEC 13.3, BD Pharmingen, Franklin Lakes, NJ), anti-CD45 antibody (clone 30-F11; BioLegend), anti-CD3 (clone 17A2; BD Biosciences, San Jose, CA) or anti-CD11b (clone M1/70; BD Biosciences) and histofine simple stain mouse max pro anti-rabbit secondary antibody (Nichirei Biosciences, Tokyo, Japan) to determine proliferation. Anti-rat N-Histofine Simple Stain Mouse MAX PO (Nichirei Biosciences) and DAB chromogen were used to stain blood vessels. The percentage of Ki-67-positive tumor nuclei and the mean number of CD31-positive intratumoral vessels per high power field (×40 objective) were calculated using three randomly selected different microscopic fields of each section for three 3 mice per group. Alternatively, DAB-positive signals were quantified using the ImageJ software (https://imagej.nih.gov/) (Crowe and Yue, 2019).
(§1) All in vitro and in vivo experiments reported here were performed in biological replicates, i.e., in independent experiments and with different passage numbers of cell lines. Statistical significance was assessed by two-sided unpaired t-test or two-way ANOVA with Bonferroni post-testing (GraphPad Prism). Tumor size was analyzed using the Mann-Whitney U non-parametric test. Survival was analyzed using a Kaplan-Meier survival plot followed by a log-rank (Mantel-Cox) test. Differences were considered statistically significant when the p value was below 0.05.

mouse cytokines = assay: Proteome profiler cytokine array of SMA-560 tumor lysates ex vivo; type: in vivo
Protocol: In A, raw data are expressed as pixel density measured by Image J. In B, fold-changes indicate down-regulation (left) or up-regulation (right) versus control tumors. A difference down or up of 2-fold versus control was used as cut-off to assign a target to any group.
For the simultaneous determination of relative levels of mouse cytokines in vivo, the Mouse XL Cytokine Array Kit from R&D Systems was used (ARY028, Minneapolis, MN). Tissue lysates were prepared by electric homogenizer in ice-cold lysis buffer and supplemented with protease inhibitor cocktail, followed by centrifugation to remove cellular debris; 150 μg protein was used for each tumor sample and nitrocellulose membrane (control, monotherapies, combination therapy). To compare the proportion of protein levels in each tumor specimen, the quantification of pixel density of each spot of the array was performed using Image J (version 1.32j) software (National Institutes of Health, Bethesda, MD, http://rsb.info.nih.gov/ij/).

GL-261 glioma [5] = assay: Orthotopic syngeneic GL-261 glioma model in wildtype mice; type: in vivo, mouse
Protocol: (§2) Kaplan-Meier survival curves are shown. B, C. […] B. Kaplan-Meier survival curves were analyzed via log-rank test. C. Mice surviving in (B) were re-challenged after 13 weeks after initial tumor cell injection with GL-261 cell implantation into the contralateral hemisphere. Naïve mice implanted with GL-261 cells were used as controls. Kaplan-Meier survival curves are shown. D, E. GL-261 met knock-out cells were intracranially implanted into wildtype C57/B16 mice (D) or GL-261 wildtype cells were intracranially implanted into C57/B16 Rag1−/− mice (E). […] F. Analysis of median survival between treatment groups.
as §1

SMA-560 gliomas [6] = assay: SMA-560 glioma in immunodeficient Rag1−/− mice; type: in vivo, mouse; conditions: tepotinib 100 mg/kg daily + 10 Gy
GL-261 glioma [7] = assay: GL-261 glioma in Rag1−/− mice; type: in vivo, mouse; conditions: tepotinib + 10 Gy
Protocol: as §2, §1

[8] = test system: GL-261 met knock-out cells; assay: GL-261 met knock-out glioma in wildtype mice; type: in vivo, mouse; conditions: MET disrupted in tumor, tepotinib + 10 Gy
Protocol: as §2
Knockout clones were generated as described (Ran et al., 2013; Machado et al., 2019). Briefly, two MET-specific guide RNAs (5′-[…]-3′ and 5′-[…]-3′) were cloned into pSpCas9(BB)-2A-GFP and lipofectamine (Thermo) was used to co-transfect both plasmids. […]
as §1, with “Differences were considered statistically significant when the p value was below 0.05.” left out

[9] = test system: ligand-independent Hs746T tumors; conditions: before tumor became resistant and progressed; cited from earlier work
[10] = test system: HGF-dependent U87MG tumors; conditions: before tumor became resistant and progressed; cited from earlier work
[11] = combination group (tepotinib + radiotherapy)

## onartuzumab: MET antibody
glioblastoma
  efficacy outcome in glioblastoma: negative outcomes

## AMG-102: HGF antibody
glioblastoma
  efficacy outcome in glioblastoma: negative outcomes

## CN1CCC(COc2cnc(-c3cccc(Cn4nc(-c5cccc(C#N)c5)ccc4=O)c3)nc2)CC1 [tepotinib, 3-(1-{3-[5-(1-methyl-piperidin-4-ylmethoxy)-pyrimidin-2-yl]-benzyl}-6-oxo-1,6-dihydro-pyridazin-3-yl)-benzonitrile]
Mouse glioma cell lines [1]
  acute growth inhibition: resistant to inhibitory effects of tepotinib
Mouse glioma cell lines [2]
  clonogenicity: resistant to inhibitory effects of tepotinib
Glioma cells; concentrations known to inhibit MET phosphorylation (100 nM)
  sensitization to inhibitory effects of irradiation in vitro: failed to sensitize glioma cells to the inhibitory effects of irradiation
Glioma cells; with exogenous HGF (50 ng/ml)
  sensitization to irradiation in presence of exogenous HGF: no sensitization to irradiation by tepotinib became apparent
[3]
  invasiveness: suppressed invasiveness in all cell lines without or with irradiation, except in low dose-irradiated SMA-540 cells
SMA-560 gliomas [4]; combination arm (tepotinib + radiotherapy)
  reduction in CD31 immunoreactivity: 2.8 fold
SMA-560 gliomas [4]; [11]
  Ki-67-positive cells: strong decrease of Ki-67-positive cells
  mice alive and free from tumor at day 80: three
SMA-560 gliomas [4]; combination with radiotherapy (single dose 12 Gy)
  survival: around 60 days
SMA-560 gliomas [4]; monotherapy
  survival: around 20 days
SMA-560 gliomas [4]; monotherapy arm
  reduction in CD31 immunoreactivity: 1.8 fold
SMA-560 gliomas [4]; monotherapy group
  percentage of Ki-67-stained nuclei: remained unaffected
SMA-560 gliomas [4]; tepotinib alone, 100 mg/kg daily
  effect on survival: Neither tepotinib alone nor radiotherapy alone had a significant effect on survival
SMA-560 gliomas [4]; tepotinib group
  mice alive and free from tumor at day 80: one
Mouse cytokines; combination with irradiation
  irradiation-induced cytokines (VEGF, ICAM-1, MMP-2/-9, IL-1a, CXCL10 etc.): an induction upon irradiation that was attenuated by tepotinib
Mouse cytokines; tepotinib monotherapy
  cytokine levels in tumor tissue lysates: reduced the levels of some cytokines
GL-261 glioma [5]; co-treatment group
  long-term survivors: approximately 50%
GL-261 glioma [5]; combination therapy (tepotinib + 10 Gy), wildtype mice
  survival: prominent survival prolongation
GL-261 glioma [5]; rechallenge at 90 days, followed another 50 days
  outcome of rechallenge of long-term survivors with GL-261 cells: all 4 animals remained asymptomatic
SMA-560 gliomas [6]
  synergistic effect of combination therapy on survival: strongly attenuated
GL-261 glioma [7]
  synergy of irradiation with tepotinib: synergy with tepotinib was lost
[8]
  synergy of irradiation with tepotinib: synergy was also lost
[9]
  tumor growth inhibition and regression: Tumor growth inhibition and regression of tumors by tepotinib was temporarily observed
[10]
  tumor growth inhibition and regression: Tumor growth inhibition and regression of tumors by tepotinib was temporarily observed
